The assay concerns Escherichia coli strain ATCC25922. As to the kind of experiment: standard microdilution assay to determine minimum inhibitory concentrations (MICs). The format is cell-based. The following applies: for MIC: Escherichia coli, ATCC25922, Escherichia coli strain ATCC25922, microdilution, read-out: E. coli ATCC25922 MIC; for E. coli ATCC25922 MIC: Escherichia coli strain ATCC25922, microdilution. Put shortly: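 E. coli strain ATCC25922 tested per CLSI microdilution methodology (about 100 microliters per well) to find minimum inhibitory concentrations. Activity scored categorically at a 16 micrograms/ml threshold.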
For orientation: Broth dilution looks for growth in wells or tubes with falling amounts of substance.

A value given as a limit tells only on which side of the number the result lay.

As usually defined, the MIC is the lowest concentration found to suppress growth.

On to `O=c1nc2[nH]c3ccccc3c2cn1C1CCNC1` (stereo not drawn) [Compound 597], for which the MIC is over 16 µg/mL.
Consider `CC(CCN)c1cc(-c2cc3cn(-c4ccc(CNCCCNC(=N)N)cc4)c(=O)nc3[nH]2)ccc1Cl` (stereo not drawn) [Compound 2093a], for which the “E. coli ATCC25922 MIC” value was “+ (a “+” indicates that the compound has an MIC value of 16 micrograms/ml or less)”.
Consider `N=C(N)NCCCNCc1ccc(-n2cc3cc(-c4cc(CCCCN)cc(OC(F)(F)F)c4)[nH]c3nc2=O)cc1` [Compound 2009a], for which the MIC was under 16 µg/mL.
As to `N=C(N)NCCCNCc1ccc(-n2cc3cc(-c4cc(OC(F)(F)F)cc(SCCCN)c4)[nH]c3nc2=O)cc1` [Compound 2047a], the “E. coli ATCC25922 MIC” value is recorded as “+ (a “+” indicates that the compound has an MIC value of 16 micrograms/ml or less)”.
On the same count and under the same terms, the result for `N=C(N)NCCCNCc1ccc(-n2cc3cc(-c4cc(C(=O)Nc5nc(C(F)(F)F)cs5)cc(N5CCNCC5)c4)[nH]c3nc2=O)cc1` [Compound 1061] reads “+ (a “+” indicates that the compound has an MIC value of 16 micrograms/ml or less)”.
For the compound `NCc1ccc(-n2cc3cc(-c4cccc(CN5CCNCC5)c4)[nH]c3nc2=O)cc1` [Compound 1232], the MIC is over 16 µg/mL.
Same read-out and setting: to `NCc1ccc(-n2cc3cc(-c4cccc(OCCF)c4)[nH]c3nc2=O)cc1` [Compound 1168] belongs over 16 µg/mL; to `NCCCNCc1ccc(-n2cc3cc(-c4ccccn4)[nH]c3nc2=O)cc1` [Compound 620], over 16 µg/mL.
`CN1CCN(CCOc2cc(-n3cc4cc(-c5ccc(S(=O)(=O)NC6CCNCC6)cc5)[nH]c4nc3=O)ccc2C(=O)NCCCNC(=N)N)CC1` [Compound 1152]: the “E. coli ATCC25922 MIC” value is recorded as “− (a “−” indicates that the compound has an MIC value greater than 16 micrograms/ml)”.
`CCOCCOc1ccccc1-c1cc2cn(-c3ccc(CN)cc3)c(=O)nc2[nH]1` [Compound 1131]: the MIC is over 16 µg/mL.
Turning to `N=C(N)NCCCNCc1ccc(-n2cc3cc(-c4cccc(OCC(CN)OCC(F)(F)F)c4)[nH]c3nc2=O)cc1` (stereo not drawn) [Compound 1455], the “E. coli ATCC25922 MIC” value is “+ (a “+” indicates that the compound has an MIC value of 16 micrograms/ml or less)”.
`NCCCN(CCCN)Cc1ccc(-n2cc3cc(-c4ccc(C(=O)NC5CCOCC5)cc4)[nH]c3nc2=O)cc1` [Compound 193]: the minimal inhibitory concentration (MIC) is over 16 µg/mL.
Still for that read-out and setting: the result for `NCCCCN1CCC(n2cc3c(nc2=O)[nH]c2ccccc23)CC1` [Compound 600] reads over 16 µg/mL.
Turning to `N=C(N)NCCCNCc1ccc(-n2cc3cc(-c4ccc(S(=O)(=O)N(Cc5ccccc5SC(F)(F)F)C5CCOCC5)cc4)[nH]c3nc2=O)cc1` [Compound 876], the “E. coli ATCC25922 MIC” value is listed as “− (a “−” indicates that the compound has an MIC value greater than 16 micrograms/ml)”.
Same read-out and setting: the result for `N=C(N)NCCCNCc1ccc(-n2cc3cc(-c4ccc(S(=O)(=O)N(CCC(=O)Nc5ccc([N+](=O)[O-])cc5)C5CCNCC5)cc4)[nH]c3nc2=O)cc1` [Compound 854] reads “+ (a “+” indicates that the compound has an MIC value of 16 micrograms/ml or less)”.
Regarding `N=C(N)NCCCNCc1ccc(-n2cc3cc(C4CCCN(Cc5ncc[nH]5)C4)[nH]c3nc2=O)cc1` (stereo not drawn) [Compound 2022a], the MIC was over 16 µg/mL.
On the same count and under the same terms, to `N=C(N)NCCCNCc1ccc(-n2cc3cc(-c4cccc(S(=O)(=O)NC5CCNCC5)c4)[nH]c3nc2=O)cc1` [Compound 836] belongs under 16 µg/mL; to `NCc1ccc(-n2cc3cc(-c4cccc(S(=O)(=O)N(CCOc5ccc(F)cc5)C5CCNCC5)c4)[nH]c3nc2=O)cc1` [Compound 1123], over 16 µg/mL; to `NCCCNCc1ccc(-c2cn3nc(N)[nH]c3nc2=O)cc1` [Compound 647], over 16 µg/mL.
`N=C(N)NCCCNCc1ccc(-n2cc3cc(-c4cccc(C(CCCN)C(F)(F)F)c4)[nH]c3nc2=O)cc1` (stereo not drawn) [Compound 2075a]: the “E. coli ATCC25922 MIC” value is “+ (a “+” indicates that the compound has an MIC value of 16 micrograms/ml or less)”.
`N=C(N)NCCCNCc1ccc(-n2cc3cc(-c4cc(C(=O)NCCc5ccc(F)cc5)cc(N5CCNCC5)c4)[nH]c3nc2=O)cc1` [Compound 963]: the “E. coli ATCC25922 MIC” value was “+ (a “+” indicates that the compound has an MIC value of 16 micrograms/ml or less)”.
As to `CN(C(=O)c1ccc(-c2cn3cc(-c4ccc(CNCCCNC(=N)N)cc4)c(=O)nc3[nH]2)cc1)C1CCNCC1` [Compound 736], the minimal inhibitory concentration (MIC) was under 16 µg/mL.
On to `NCc1ccc(-n2cc3cc(-c4ccc(S(=O)(=O)N(CC5COc6ccccc6O5)C5CCNCC5)cc4)[nH]c3nc2=O)cc1` (stereo not drawn) [Compound 985], for which the “E. coli ATCC25922 MIC” value is “− (a “−” indicates that the compound has an MIC value greater than 16 micrograms/ml)”.
Still for that read-out and setting: the result for `N=C(N)NCCCNCc1ccc(-n2cc3cc(-c4cc(CCN)cc(CCCCN)c4)[nH]c3nc2=O)cc1` [Compound 2062a] reads “+ (a “+” indicates that the compound has an MIC value of 16 micrograms/ml or less)”.
Turning to `N=C(N)NCCCNCc1ccc(-c2cn3cc(-c4ccc(C5=CCN(C(=N)N)CC5)cc4)[nH]c3nc2=O)cc1` [Compound 650], the minimal inhibitory concentration (MIC) is under 16 µg/mL.
Take `N=C(N)NCCCNCc1ccc(-n2cc3cc(-c4cc(C(=O)N5CCC(F)(F)CC5)cc(N5CCNCC5)c4)[nH]c3nc2=O)cc1` [Compound 1074]: the “E. coli ATCC25922 MIC” value was “+ (a “+” indicates that the compound has an MIC value of 16 micrograms/ml or less)”.
Still for that read-out and setting: the result for `NC(N)=NCCC(=O)NCc1ccc(-n2cc3cc(-c4ccc(S(=O)(=O)N(CCOc5ccc(F)cc5)C5CCNCC5)cc4)[nH]c3nc2=O)cc1` [Compound 1196] reads “− (a “−” indicates that the compound has an MIC value greater than 16 micrograms/ml)”.
As for `N=C(N)NCCCNCc1ccc(-c2cn3cc(-c4ccc(C(=O)N5CCN(c6ccc(F)cc6)CC5)cc4)[nH]c3nc2=O)cc1` [Compound 670], the MIC is over 16 µg/mL.
Regarding `N=C(N)NCCCNCc1ccc(-n2cc3cc(-c4cc(CCO)cc(CCCCN)c4)[nH]c3nc2=O)cc1` [Compound 2053a], the “E. coli ATCC25922 MIC” value was “+ (a “+” indicates that the compound has an MIC value of 16 micrograms/ml or less)”.
As for `NCCCNCc1ccc(-c2cn3cc(-c4ccc(C(=O)N5CCS(=O)(=O)CC5)cc4)[nH]c3nc2=O)cc1` [Compound 698], the MIC was over 16 µg/mL.
For `N=C(N)N[C@@H]1CCN(Cc2ccc(-n3cc4cc(-c5ccc(S(=O)(=O)N(CCCn6cnnc6)C6CCNCC6)cc5)[nH]c4nc3=O)cc2)C1` [Compound 1219], the “E. coli ATCC25922 MIC” value is reported as “− (a “−” indicates that the compound has an MIC value greater than 16 micrograms/ml)”.
On the same count and under the same terms, the result for `N=C(N)NC(=O)CCNCc1ccc(-n2cc3cc(-c4ccc(S(=O)(=O)NC5CCNCC5)cc4)[nH]c3nc2=O)cc1` [Compound 1173] reads “− (a “−” indicates that the compound has an MIC value greater than 16 micrograms/ml)”.
As for `NCCCNCc1ccc(-n2cc3cc(-c4ccsc4)[nH]c3nc2=O)cc1` [Compound 612], the MIC is over 16 µg/mL.
On the same count and under the same terms, to `CN(CCO)C(=O)c1ccc(-c2cn3cc(-c4ccc(CNCCCNC(=N)N)cc4)c(=O)nc3[nH]2)cc1` [Compound 720] belongs under 16 µg/mL; to `COCCOCCN(C1CCNCC1)S(=O)(=O)c1cccc(-c2cc3cn(-c4ccc(CN)cc4)c(=O)nc3[nH]2)c1` [Compound 1158], over 16 µg/mL; to `N=C(N)NCCC(=O)NCc1ccc(-n2cc3cc(-c4ccc(C[C@H](N)CO)cc4)[nH]c3nc2=O)cc1` [Compound 1163], under 16 µg/mL.
`N=C(N)NCCCNCc1ccc(-n2cc3cc(-c4ccc(C[C@H](N)CO)cc4)[nH]c3nc2=O)cc1` [Compound 907]: the “E. coli ATCC25922 MIC” value is “+ (a “+” indicates that the compound has an MIC value of 16 micrograms/ml or less)”.
On the same count and under the same terms, the result for `N=C(N)NCCCNCc1ccc(-n2cc3cc(-c4ccc(S(=O)(=O)NC5CCOCC5)cc4)[nH]c3nc2=O)cc1` [Compound 864] reads “− (a “−” indicates that the compound has an MIC value greater than 16 micrograms/ml)”.
On to `COCc1cc2cn(-c3ccc(CNCCCN)cc3)c(=O)nc2[nH]1` [Compound 610], for which the MIC is over 16 µg/mL.
Regarding `N=C(N)NCCCNCc1ccc(-n2cc3cc(-c4ccc(S(=O)(=O)N(CCCc5cccnc5)C5CCNCC5)cc4)[nH]c3nc2=O)cc1` [Compound 801], the “E. coli ATCC25922 MIC” value was “+ (a “+” indicates that the compound has an MIC value of 16 micrograms/ml or less)”.
As to `N=C(N)NCCCNCc1ccc(-n2cc3cc(-c4cccc(OCCCO)c4)[nH]c3nc2=O)cc1` [Compound 1110], the minimal inhibitory concentration (MIC) is over 16 µg/mL.
`NCc1ccc(-n2cc3cc(-c4cccc(S(=O)(=O)N(CCN5CCCC5)C5CCNCC5)c4)[nH]c3nc2=O)cc1` [Compound 1183]: the MIC is over 16 µg/mL.
As for `N=C(N)NCCCNC(=O)c1ccc(-n2cc3cc(-c4ccc(S(=O)(=O)N(CC5CC5)C5CCNCC5)cc4)[nH]c3nc2=O)cc1` [Compound 996], the “E. coli ATCC25922 MIC” value is listed as “+ (a “+” indicates that the compound has an MIC value of 16 micrograms/ml or less)”.
With `NCc1ccc(-n2cc3cc(-c4cccc(OCC(F)(F)CN)c4)[nH]c3nc2=O)cc1` [Compound 1436], the MIC is over 16 µg/mL.
Same read-out and setting: the result for `O=c1nc2[nH]c(-c3ccc(F)cc3)cc2cn1C1CCNC1` (stereo not drawn) [Compound 561] reads over 16 µg/mL.
The same measure, in the same setting: the result for `CC(C)(N)c1cc2cn(-c3ccc(CNCCCN)cc3)c(=O)nc2[nH]1` [Compound 625] reads over 16 µg/mL; that for `NCCCNCc1ccc(-n2cc3cc(COc4ccccc4)[nH]c3nc2=O)cc1` [Compound 626], over 16 µg/mL.
On to `CNCc1ccc(-n2cc3cc(-c4ccc(S(=O)(=O)N(CC5CC5)C5CCNCC5)cc4)[nH]c3nc2=O)cc1` [Compound 936], for which the “E. coli ATCC25922 MIC” value is “− (a “−” indicates that the compound has an MIC value greater than 16 micrograms/ml)”.
`N=C(N)NCCCNCc1ccc(-n2cc3cc(-c4ccc(S(=O)(=O)C5CCNCC5)cc4)[nH]c3nc2=O)cc1` [Compound 1180]: the MIC was under 16 µg/mL.
Consider `CNCc1ccc(-n2cc3cc(-c4ccc(S(=O)(=O)N(CCCc5ccc(O)cc5)C5CCNCC5)cc4)[nH]c3nc2=O)cc1` [Compound 1064], for which the “E. coli ATCC25922 MIC” value is on record as “− (a “−” indicates that the compound has an MIC value greater than 16 micrograms/ml)”.
With `COCCOCCN(C1CCNCC1)S(=O)(=O)c1cccc(-c2cc3cn(-c4ccc(CNCCCNC(=N)N)cc4)c(=O)nc3[nH]2)c1` [Compound 1161], the “E. coli ATCC25922 MIC” value is listed as “+ (a “+” indicates that the compound has an MIC value of 16 micrograms/ml or less)”.
